What was measured:
mice = test: Acute toxicity in mice after oral administration; type: in vivo
Text: (§1) The acute toxicity of compounds of this invention has been evaluated after oral administration in mice

amino peptidase = biological target: T1, amino peptidase (Rattus norvegicus, UniProt F1M9V7); test: Inhibition of amino peptidase, soluble fraction of rat striata, 3H-Tyr-Leucine-Enkephalin substrate; type: biochemical, rats; conditions: read-out: Drug concentration which inhibits 50% of the enzymatic activities (IC50(M)), Amino Peptidase
T1 construct: as enzyme source it has been used the soluble fraction of point (a) above; from tissue; host or cells: rat striatum, soluble fraction
T1 sequence (F1M9V7 1-920): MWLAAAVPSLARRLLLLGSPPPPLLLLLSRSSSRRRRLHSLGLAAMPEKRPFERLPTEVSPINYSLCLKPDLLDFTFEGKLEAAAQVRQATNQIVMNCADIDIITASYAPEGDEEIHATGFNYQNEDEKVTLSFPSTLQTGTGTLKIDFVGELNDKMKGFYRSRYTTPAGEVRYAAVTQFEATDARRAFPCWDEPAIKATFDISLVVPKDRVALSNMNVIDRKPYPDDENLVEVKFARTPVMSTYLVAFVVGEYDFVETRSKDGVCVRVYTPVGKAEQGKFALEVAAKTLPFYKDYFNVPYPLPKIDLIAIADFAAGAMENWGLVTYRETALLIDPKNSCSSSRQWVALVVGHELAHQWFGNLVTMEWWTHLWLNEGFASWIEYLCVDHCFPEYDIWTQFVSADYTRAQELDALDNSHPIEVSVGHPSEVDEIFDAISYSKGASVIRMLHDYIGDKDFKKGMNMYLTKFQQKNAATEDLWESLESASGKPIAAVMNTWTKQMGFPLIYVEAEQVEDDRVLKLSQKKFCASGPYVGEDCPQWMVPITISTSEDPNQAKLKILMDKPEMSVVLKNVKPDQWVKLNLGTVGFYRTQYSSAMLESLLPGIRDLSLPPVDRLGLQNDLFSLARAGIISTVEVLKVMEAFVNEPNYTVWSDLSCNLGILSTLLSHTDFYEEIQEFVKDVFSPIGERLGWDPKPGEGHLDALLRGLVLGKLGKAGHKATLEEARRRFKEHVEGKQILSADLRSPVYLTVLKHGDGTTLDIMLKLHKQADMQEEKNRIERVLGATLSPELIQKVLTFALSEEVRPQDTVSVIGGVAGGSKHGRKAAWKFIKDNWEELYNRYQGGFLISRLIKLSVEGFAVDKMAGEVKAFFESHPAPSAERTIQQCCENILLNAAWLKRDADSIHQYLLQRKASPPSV
Text: The evaluation of the inhibitory effect on enkephalinase and on aminopeptidase activity respectively has been made as follows: […]

enkephalinase [1] = biological target: T2, enkephalinase (Rattus norvegicus, UniProt P07861); test: Inhibition of enkephalinase, particulate fraction of rat striata, 3H-Tyr-Leucine-Enkephalin substrate; type: biochemical, rats; conditions: read-out: Drug concentration which inhibits 50% of the enzymatic activities (IC50(M)), Enkephalinase
T2 construct: enzymatic preparation extracted from the particulate fraction of striata of rats; from tissue; host or cells: rat striatum, particulate fraction purified on discontinuous sucrose gradient
T2 sequence (P07861 1-750): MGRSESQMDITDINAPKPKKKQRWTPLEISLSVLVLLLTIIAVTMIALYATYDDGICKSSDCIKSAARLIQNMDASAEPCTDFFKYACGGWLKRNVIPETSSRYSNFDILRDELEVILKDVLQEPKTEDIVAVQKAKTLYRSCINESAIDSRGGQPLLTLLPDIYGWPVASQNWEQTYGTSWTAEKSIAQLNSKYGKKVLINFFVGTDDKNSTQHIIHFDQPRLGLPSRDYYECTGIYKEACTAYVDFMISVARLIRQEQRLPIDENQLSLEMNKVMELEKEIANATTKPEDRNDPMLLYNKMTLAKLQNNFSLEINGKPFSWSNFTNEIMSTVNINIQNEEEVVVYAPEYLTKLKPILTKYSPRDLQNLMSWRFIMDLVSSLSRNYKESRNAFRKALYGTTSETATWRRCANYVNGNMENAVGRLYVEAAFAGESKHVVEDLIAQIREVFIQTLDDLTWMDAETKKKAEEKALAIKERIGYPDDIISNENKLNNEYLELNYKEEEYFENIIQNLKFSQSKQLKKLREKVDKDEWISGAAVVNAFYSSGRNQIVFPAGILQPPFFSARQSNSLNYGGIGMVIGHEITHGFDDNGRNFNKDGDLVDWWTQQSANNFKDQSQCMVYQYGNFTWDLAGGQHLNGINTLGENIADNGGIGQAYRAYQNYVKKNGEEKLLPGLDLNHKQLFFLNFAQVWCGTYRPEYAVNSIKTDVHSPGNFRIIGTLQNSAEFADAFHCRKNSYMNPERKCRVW
Text: The evaluation of the inhibitory effect on enkephalinase and on aminopeptidase activity respectively has been made as follows:
(a) enkephalinase: it has been used the enzymatic preparation extracted from the particulate fraction of striata of rats purified on discontinous gradient of sucrose (Blumberg et al., Life Sci., 28, (1981), 301); the evaluation of the enzymatic activity has been made using ^3 H-Tyr-Leucine-Enkephalin as substrate (Vogel and Alstein, FEBS Lett., 80, (1977), 332).

enkephalinase [2] = biological target: T3, enkephalinase (Mus musculus, UniProt Q61391); test: Potentiation of Met-Enk analgesia in mice, hot plate test, intracerebral administration; type: in vivo
T3 construct: potentiation of the analgesic effect induced in mice by Methionine-Enkephalin; from tissue; host or cells: endogenous enzyme in the brain of living mice (intracerebral administration)
T3 sequence (Q61391 1-750): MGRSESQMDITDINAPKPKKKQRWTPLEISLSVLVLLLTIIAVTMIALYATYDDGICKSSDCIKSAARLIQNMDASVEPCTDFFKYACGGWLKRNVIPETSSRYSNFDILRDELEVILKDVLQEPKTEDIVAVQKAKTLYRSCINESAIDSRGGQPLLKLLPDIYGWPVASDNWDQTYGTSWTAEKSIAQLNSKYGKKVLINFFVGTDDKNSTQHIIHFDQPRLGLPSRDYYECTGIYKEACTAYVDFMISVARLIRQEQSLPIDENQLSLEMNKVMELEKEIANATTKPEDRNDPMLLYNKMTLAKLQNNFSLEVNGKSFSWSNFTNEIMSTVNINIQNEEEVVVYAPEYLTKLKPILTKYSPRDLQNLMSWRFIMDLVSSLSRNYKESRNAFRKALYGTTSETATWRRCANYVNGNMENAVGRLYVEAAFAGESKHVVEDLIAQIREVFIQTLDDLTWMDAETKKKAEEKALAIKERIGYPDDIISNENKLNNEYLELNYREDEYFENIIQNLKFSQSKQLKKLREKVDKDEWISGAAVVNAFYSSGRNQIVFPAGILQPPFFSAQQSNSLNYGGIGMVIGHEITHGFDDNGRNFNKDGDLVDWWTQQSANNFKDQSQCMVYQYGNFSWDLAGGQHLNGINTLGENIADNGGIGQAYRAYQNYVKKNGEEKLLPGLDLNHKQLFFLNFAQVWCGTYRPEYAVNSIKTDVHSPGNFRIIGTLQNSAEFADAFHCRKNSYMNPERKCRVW

[3] = Acute toxicity in mice after oral administration; type: in vivo; conditions: mouse, in vivo
Text: as §1

[4] = Met-Enk 50 μg/ic + compound 12,5 μg/ic
[5] = Met-Enk 50 μg/ic + compound 25 μg/ic
[6] = Met-Enk 50 μg/ic + compound 50 μg/ic

IC50 (amino peptidase) [M] | IC50 (enkephalinase [1]) [M] | Compound | further results
– | – | 2-(2-acetylthiomethyl-propionamido)-picolinic acid [Example 26] | LD50 (mice): 421 mg/kg
> 1e-06 | > 1e-06 | C[C@H](CS)C(=O)N1CCC[C@H]1C(=O)O [Captopril, 1,-(3-mercapto-2-methyl-1-oxopropyl)-L-proline, reference compound] | –
> 1e-06 | 5e-07 | CC(CS)C(=O)Nc1ccc(C(=O)O)cn1 (stereo not shown) [Example 8, 6-(2-mercaptomethyl-propionamido)-nicotinic acid] | Latency Time X ± SE (sec) (enkephalinase [2]; [4]): 19,6 ± 2,1 sec
> 1e-06 | 2e-07 | COC(=O)c1cncc(NC(=O)C(C)CS)c1 (stereo not shown) [Example 13, methyl 5-(2-mercaptomethyl-propionamido)-nicotinate] | –
> 1e-06 | 5e-08 | CC(CS)C(=O)Nc1cncc(C(=O)O)c1 (stereo not shown) [Example 14, 5-(2-mercaptomethyl-propionamido)-nicotinic acid] | Latency Time X ± SE (sec) (enkephalinase [2]; [5]): 27,7 ± 1,5 sec
> 1e-06 | 7e-07 | COC(=O)c1cncc(N(C)C(=O)C(C)CSC(C)=O)c1 (stereo not shown) [Example 16, methyl 5-(2-acetylthiomethyl-N-methyl-propionamido)-nicotinate] | Latency Time X ± SE (sec) (enkephalinase [2]; Met-Enk 50 μg/ic + compound 5 μg/ic): 14,8 ± 1,1 sec
> 1e-06 | 1e-07 | CC(CS)C(=O)N(C)c1cncc(C(=O)O)c1 (stereo not shown) [Example 17, 5-(2-mercaptomethyl-N-methyl-propionamido)-nicotinic acid] | Latency Time X ± SE (sec) (enkephalinase [2]; [6]): 13,8 ± 1,4 sec
> 1e-06 | 3e-07 | C[C@H](CSC(=O)c1ccccc1)C(=O)Nc1cncc(C(=O)O)c1 [Example 18a, S(-)-5-(2-benzoylthiomethyl-propionamido)-nicotinic acid] | Latency Time X ± SE (sec) (enkephalinase [2]; [6]): 13,1 ± 0,9 sec
> 1e-06 | 2e-07 | CC(CS)C(=O)Nc1ccc(C(=O)O)nc1 (stereo not shown) [Example 23, 5-(2-mercaptomethyl-propionamido)-picolinic acid] | Latency Time X ± SE (sec) (enkephalinase [2]; [5]): 26,1 ± 2,1 sec
– | – | COC(=O)c1ncccc1NC(=O)C(C)CSC(C)=O (stereo not shown) [Example 24, methyl 3-(2-acetylthiomethyl-propionamido)-picolinate] | LD50 [3]: 390 mg/kg
– | – | COC(=O)c1ncccc1NC(=O)C(C)CS (stereo not shown) [Example 25, methyl 3-(2-mercaptomethyl-propionamido)-picolinate] | LD50 [3]: 329 mg/kg
> 1e-06 | 1.8e-09 | O=C(O)c1ccnc(NC(=O)C(CS)Cc2ccccc2)c1 (stereo not shown) [Example 28, 2-(2-mercaptomethyl-3-phenyl-propionamido)-isonicotinic acid] | Latency Time X ± SE (sec) (enkephalinase [2]; [6]): 27,0 ± 1,6 sec
> 1e-06 | 5e-07 | CC(CS)C(=O)Nc1cc(C(=O)O)ccn1 (stereo not shown) [Example 31, 2-(2-mercaptomethyl-propionamido)-isonicotinic acid] | Latency Time X ± SE (sec) (enkephalinase [2]; [4]): 15,4 ± 1,2 sec
– | – | Methionine-Enkephalin [Met--Enk, reference compound] | Latency Time X ± SE (sec) (enkephalinase [2]; Met-Enk alone 50 μg/ic): 14,7 ± 1,3 sec

Compound | IC50 (amino peptidase) [M] | IC50 (enkephalinase [1]) [M] | further results
CC(C)C[C@H](NC(=O)[C@@H](O)[C@H](N)Cc1ccccc1)C(=O)O [Bestatin, reference compound] | 2e-07 | > 1e-06 | –

Reference: patent US4528296A, “Derivatives of aminopyridinecarboxylic acids and pharmaceutical compositions containing them” (Simes, Societa Italiana Medicinalle Sintetici, priority 1982, dated 1985)
